Measurements: patent publication US20080207952A1, “NOVEL THERAPEUTIC APPLICATIONS OF NATURAL POLY ISOPRENYLATED BENZOPHENONE DERIVATIVES AS DRUGS/MEDICAMENTS” (priority 2003, published 2008)
Read-outs that look alike come from different tables or passages of the source.

Assays:
[1] = tested on: Propionibacterium acnes ATCC 11827; assay: Anti-microbial activity against Propionibacterium acnes (disk zone of inhibition on Reinforced Clostridial Agar); assay type: cell-based; conditions: 48 hours at 37° C., anaerobic
Method: Propionibacterium acnes was cultured in an anaerobic chamber (Coy Laboratory, USA with an automatic lock purge system). The growth standardization was ensured by culturing the organism in different culture media. The anaerobic conditions were ensured initially with Nitrogen gas and then a mixture of Nitrogen, Hydrogen and Carbon dioxide in a ratio of 80:10:10. A two gas tank arrangement was made wherein only Nitrogen was connected to the transfer chamber and the mixed gas to the main chamber using Gassing Manifold (Hrishi Biotech. Pune, India). The anaerobic media were prepared by heating the media while passing the mixture of gases Nitrogen and Carbon dioxide in a ratio of 4:1 simultaneously. A redox indicator reazurin=0.001% was added to the media. The indicator is colorless in an anaerobic environ and turns blue otherwise. It was dispensed to 30 ml, 20 ml and 10 ml vials sealed with rubber and aluminium clamps and sterilized by autoclaving at 121° C. for 15 minutes.
Propionibacterium acnes ATCC 11827 was sub cultured from broth cultures into vials containing fresh medium. The cultures were then incubated for 48 hours at 37° C. The optical density of the culture at 625 nm was maintained between 0.64 and 0.80 which corresponded to approximately 12×10^6 cells/ml (4.0 MC Mc Farland standard). The anti-microbial susceptibility testing was carried on Reinforced Clostridial Agar (RCA). 0.3 ml of P. acnes culture was inoculated into the culture plates. Culture plates were impregnated with disks comprising varying concentrations of the test naturally occuring poly isoprenylated benzophenone derivatives. The plates were incubated in anaerobic chambers at 37° C. for 48 hours. The test naturally occuring poly isoprenylated benzophenone derivatives were prepared with DMSO as vehicle. The controls included DMSO and Clindac A (Clindamycin Phosphate Gel 1% w/w). The zone of inhibition was measured and expressed in mm. (Table I)

COX 2 = molecular target: T1, COX 2 (Ovis aries, UniProt P79208); assay: COX inhibitor screening assay (Cayman, EIA), COX-2; assay type: biochemical; conditions: prostaglandins by EIA
T1 construct: purchased Cayman chemical company 560101
T1 sequence (P79208 17-603): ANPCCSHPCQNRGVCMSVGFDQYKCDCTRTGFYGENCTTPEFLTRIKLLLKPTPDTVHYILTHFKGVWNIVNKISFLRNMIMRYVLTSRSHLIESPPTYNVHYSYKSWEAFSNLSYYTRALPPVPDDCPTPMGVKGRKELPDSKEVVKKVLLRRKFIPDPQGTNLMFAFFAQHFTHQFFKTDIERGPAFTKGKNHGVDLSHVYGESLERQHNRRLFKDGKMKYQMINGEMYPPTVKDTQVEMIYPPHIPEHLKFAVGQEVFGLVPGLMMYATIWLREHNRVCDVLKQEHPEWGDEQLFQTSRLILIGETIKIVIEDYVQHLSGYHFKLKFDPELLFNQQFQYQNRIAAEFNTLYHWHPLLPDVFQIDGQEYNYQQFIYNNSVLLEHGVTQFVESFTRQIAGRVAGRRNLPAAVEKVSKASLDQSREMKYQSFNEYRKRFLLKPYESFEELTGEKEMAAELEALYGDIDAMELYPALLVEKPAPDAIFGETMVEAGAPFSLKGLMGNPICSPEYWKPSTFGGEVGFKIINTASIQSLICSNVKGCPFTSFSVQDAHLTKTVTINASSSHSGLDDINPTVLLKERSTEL

COX-1 = molecular target: T2, COX-1 (Ovis aries, UniProt P05979); assay: COX inhibitor screening assay (Cayman, EIA), COX-1; assay type: biochemical; conditions: substrate Arachidonate, prostaglandins by EIA
T2 construct: purchased Cayman chemical company 560101
T2 sequence (P05979 25-600): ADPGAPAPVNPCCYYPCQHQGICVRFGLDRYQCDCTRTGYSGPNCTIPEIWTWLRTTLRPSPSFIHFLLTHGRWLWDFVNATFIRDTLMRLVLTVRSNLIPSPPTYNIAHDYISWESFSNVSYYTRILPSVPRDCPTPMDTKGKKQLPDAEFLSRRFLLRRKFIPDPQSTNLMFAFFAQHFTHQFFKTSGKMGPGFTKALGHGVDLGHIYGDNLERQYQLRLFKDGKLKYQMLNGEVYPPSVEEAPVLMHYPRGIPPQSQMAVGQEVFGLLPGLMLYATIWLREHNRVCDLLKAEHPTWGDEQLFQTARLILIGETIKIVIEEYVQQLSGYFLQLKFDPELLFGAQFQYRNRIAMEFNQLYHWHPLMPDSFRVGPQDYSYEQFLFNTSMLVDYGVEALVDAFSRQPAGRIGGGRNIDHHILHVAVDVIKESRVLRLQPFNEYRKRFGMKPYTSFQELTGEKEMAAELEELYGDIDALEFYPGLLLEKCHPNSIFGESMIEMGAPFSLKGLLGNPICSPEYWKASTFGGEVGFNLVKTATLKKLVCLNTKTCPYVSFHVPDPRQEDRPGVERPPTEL
Method: Principle: The COX inhibitor screening Assay was performed using the Cox inhibitory kit from Cayman chemical company (Catalog No. 560101) by Enzyme Immuno Assay method. Methodology: Enzyme (COX-1) is allowed to react on substrate Arachidonate in presence & absence of the inhibitor. The amount of prostaglandins (PGF2 ? ) produced by stannous chloride reduction of COX-derived PGFH2 are estimated by EIA (Cayman) using a broadly specific antibody that binds to all major prostaglandin compounds. The decrease in PGs released in presence of inhibitor is directly proportional to inhibition.

[2] = molecular target: T3, Elastase from Pig pancreas (Sus scrofa, UniProt P00772); assay: Anti-elastase activity (EnzChek elastase assay kit); assay type: biochemical; conditions: read after 30 minutes
T3 construct: purchased; host or cells: pig pancreas
T3 sequence (P00772 27-266): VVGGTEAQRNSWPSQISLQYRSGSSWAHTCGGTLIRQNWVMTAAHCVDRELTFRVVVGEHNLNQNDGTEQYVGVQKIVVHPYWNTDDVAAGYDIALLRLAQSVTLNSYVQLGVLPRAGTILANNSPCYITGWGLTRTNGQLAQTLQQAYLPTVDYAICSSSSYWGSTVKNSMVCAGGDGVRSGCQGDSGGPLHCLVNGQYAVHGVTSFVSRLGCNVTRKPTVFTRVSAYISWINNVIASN
Method: Principle: The assays were done using the EnzChek elastase assay kit. The substrate is DQ elastin soluble bovine neck ligament. DQ elastin is labeled with BODIPY FL dye. The non-fluorescent substrate can be digested by elastase to yield highly fluorescent fragments and in the presence of inhibitor, the fluorescence intensity is quenched. The fluorescence intensity was measured in a microplate reader ([…].) Methodology: Varying concentrations of the test material were pre-incubated for 10 minutes with the substrate DQ […]. Elastase from Pig pancreas enzyme was then added and the fluorescence intensity was measured after 30 minutes (Em: 485 nm and Ex: 520 nm.).

| Compound | Zone of Inhibition ([1]; Conc. of the sample 0.5%) [mm] | Zone of Inhibition ([1]; Conc. of the sample 1.0%) [mm] | Zone of Inhibition ([1]; Conc. of the sample 2.0%) [mm] | Zone of Inhibition ([1]; Conc. of the sample 5.0%) [mm] | Zone of Inhibition ([1]; Conc. of the sample 0.01%) [mm] | Zone of Inhibition ([1]; Conc. of the sample 0.03%) [mm] | Zone of Inhibition ([1]; Conc. of the sample 0.05%) [mm] | Zone of Inhibition ([1]; Conc. of the sample 0.1%) [mm] | Zone of Inhibition ([1]; Conc. of the sample 0.3%) [mm] | IC50 (COX 2) [µM] | IC50 (COX-1) [µM] | IC50 ([2]; Table III, read-out: IC50 (anti-elastase, sigmoidal dose response curve) (converted)) [µM] | IC50 ([2]; read-out: IC50 (anti-elastase) (converted)) [µM] |
| --- | --- | --- | --- | --- | --- | --- | --- | --- | --- | --- | --- | --- | --- |
| CC(C)=CC[C@H]1C[C@@]23C[C@@H](CC=C(C)C)C(C)(C)[C@@](CC=C(C)C)(C(=O)C(C(=O)c4ccc(O)c(O)c4)=C2OC1(C)C)C3=O [Cambogin 90%, Cambogin] | 0 | 0 | 0 | 0 | – | – | – | – | – | – | – | – | – |
| C=C(C)[C@@H](CC=C(C)C)C[C@@]12C[C@@H](CC=C(C)C)C(C)(C)[C@@](CC=C(C)C)(C(=O)C(C(=O)c3ccc(O)c(O)c3)=C1O)C2=O [Garcinol] | 16 | 18 | 19 | 20 | 7 | 8 | 10 | 11 | 14 | 36.5 | 144 | 496 | 498 |
